These results are taken from patent US20230391726A1, “DIHYDROQUINAZOLINONES AND RELATED ANALOGS FOR INHIBITING YAP/TAZ-TEAD” (THE KATHOLIEKE UNIVERSITEIT LEUVEN, priority 2022, published 2023).

Type in all cases: cell-based
Experiment [1] deals with YAP/TAZ-TEAD transcription. Briefly: Reporter gene assay for measuring the inhibition of YAP/TAZ-TEAD transcription (TEAD-responsive element luciferase reporter in Hek293T cells). The following applies: Homo sapiens, HEK-293T; Hek293T cells transfected with TEAD-responsive element luciferase reporter, 24 hours incubation. On the procedure:
Hek293T cells are cultured in DMEM supplemented with 10% fetal bovine serum, Sodium pyruvate, Sodium bicarbonate, L-glutamine. The cells are harvested and transiently transfected with TEAD-responsive element luciferase reporter. Transfected cells are plated in 384-wells plate containing pre-diluted compounds. After 24 hours incubation at 37° C./5% CO2, assay plates were cooled down to RT and levelled to an equal volume per well, prior to the addition of 25 uL luciferase substrate SteadyLite (Perkin Elmer)/well. The plate was shaken for 10 min at 600 rpm, centrifuged for 1 min at 500 rpm and measured with an Envision reader (PerkinElmer). The amount of relative light units produced by the TEAD reporter is used to calculated percent of inhibition.
The percent of reporter inhibition was calculated in the presence of a positive control inhibitor (100% inhibition) versus a condition with the presence of the vehicle basal activity of the reporter (0% inhibition). The ability of a test compound to inhibit this activity was determined as:
Percentage inhibition=[1-((RLU determined in the presence of vehicle−RLU determined for sample with test compound present) divided by (RLU determined in the presence of vehicle−RLU determined for sample with positive control inhibitor))]*100
The activities of example compounds tested are depicted in Table 3. The activity ranges A, B and C refer to IC50 values in the reporter gene assay as follows: “A”: IC50<1 μM; “B”: 1 μM≤IC50≤20 μM and “C”: IC50>20 μM; NT=not tested.
For orientation: In a reporter assay the amount or activity of a reporter protein is the signal.

In another experiment the test system is NCl-H226. The experiment is described as follows: Mesothelioma cell line proliferation assay (ATPlite), NCl-H226. Conditions: Homo sapiens, NCI-H226, 144 h, NCl-H226 mesothelioma cells, 6 days incubation. On the procedure: (§1) Mesothelioma cell lines, NCl-H226 and NCl-H2052 (all sourced from the ATCC cell culture collection) are plated in 96-well plates (Corning® 96 Well White Polystyrene Microplate clear flat bottom, white polystyrene (TC-Treated)), at 1500 cells/well in full medium (RPMI 1640 ATCC modification with L-glutamine, HEPES, Phenol Red, Sodium Pyruvate, High glucose, Low sodium bicarbonate and 10% fetal bovine serum). Cells are incubated overnight at 37° C. in an incubator with 5% CO2. Then compounds, dissolved in DMSO, are added in dose-response. Cells are incubated with compound dilutions for another 6 days at 37° C. in an incubator with 5% CO2. Cell viability is quantitated using the ATPlite kit (Perkin-Elmer) and the luminescence is read-out using an Envision instrument (Perkin-Elmer). The amount of relative light units produced using the ATPlite kit is used to calculated percent of inhibition.
(§2) The activities of some example compounds are depicted in Table 4. The activity ranges A, B and C refer to EC50 values in the mesothelioma cell line proliferation assay as described as follows: “A”: EC50<1 μM; “B”: 1 μM≤EC50≤10 μM and “C”: EC50>10 μM; NT: not tested.

A further experiment concerns NCl-H2052. The experiment is described as follows: Mesothelioma cell line proliferation assay (ATPlite), NCl-H2052. The following applies: Homo sapiens, NCI-H2052, 144 h, NCl-H2052 mesothelioma cells, 6 days incubation. How it is done: as §1, §2
In general terms: ATP-based viability assays read luminescence as a measure of living cells.

In experiment [1], `CNC(=O)CN1CN(c2ccc(C(F)(F)F)cc2)c2ccccc2C1=O` [Cpd. No. 6, N-methyl-2-(4-oxo-1-(4-(trifluoromethyl)phenyl)-1,4-dihydroquinazolin-3(2H)-yl)acetamide] showed a concentration for a half-maximal effect (EC50) of over 20 µM.

Turning to `C=CC(=O)NC1CN(c2ccccc2)c2ccccc2C1=O` (stereo not drawn) [Cpd. No. 7, N-(4-oxo-1-phenyl-1,2,3,4-tetrahydroquinolin-3-yl)acrylamide], the EC50 in experiment [1] was in the range of 1 to 20 µM.

In turn, `O=C(O)CN1CN(c2ccc(C(F)(F)F)cc2)c2ccccc2C1=O` [Cpd. No. 3, 2-(4-oxo-1-(4-(trifluoromethyl)phenyl)-1,4-dihydroquinazolin-3(2H)-yl)acetic acid] had a concentration for a half-maximal effect (EC50) in experiment [1] of 1 to 20 µM.

With `O=C1c2ccccc2N(c2ccc(C(F)(F)F)cc2)CN1CCCO` [Cpd. No. 2, 3-(3-hydroxypropyl)-1-(4-(trifluoromethyl)phenyl)-2,3-dihydroquinazolin-4(1H)-one], the EC50 in experiment [1] lay within 1 to 20 µM.

Regarding `NC(=O)CN1CN(c2ccc(C(F)(F)F)cc2)c2ccccc2C1=O` [Cpd. No. 5, 2-(4-oxo-1-(4-(trifluoromethyl)phenyl)-1,4-dihydroquinazolin-3(2H)-yl)acetamide], in experiment [1], the 50% effective concentration (EC50) is over 20 µM.

In the case of `O=C1NCN(c2ccc(C(F)(F)F)cc2)c2ccccc21` [Cpd. No. 1, 1-(4-(trifluoromethyl)phenyl)-2,3-dihydroquinazolin-4(1H)-one], the half-maximal effective concentration (EC50) is over 10 µM in the experiment with NCl-H226, 1 to 20 µM in experiment [1] and over 10 µM in the experiment with NCl-H2052.

On to `O=C1c2ccccc2N(c2ccc(C(F)(F)F)cc2)CN1CCO` [Cpd. No. 4, 3-(2-hydroxyethyl)-1-(4-(trifluoromethyl)phenyl)-2,3-dihydroquinazolin-4(1H)-one], for which the EC50 in experiment [1] lay within 1 to 20 µM.

By EC50 is commonly meant the concentration at which the effect is half-maximal. Low values mean higher potency in that assay, high ones lower potency in that assay.
